These results are taken from patent US12187742B2 (XRAD Therapeutics, Inc., priority 2018, dated 2025).

Each structure is given as a SMILES string. Structures can show the parent of a compound that is named as a salt.

One experiment deals with DNA-PK (Homo sapiens (Human), UniProt P78527). Put plainly: DNA-PK Enzyme-Linked Immunosorbent Assay (phosphorylation of GST-p53 (1-101) peptide). The format is biochemical. As to conditions: ELISA. In short, it runs like this: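 ELISA with plate-bound GST-p53 (1-101) phosphorylated by DNA-PK (0.1 μg/mL final) with 20 μM ATP for 1 h at 25 °C. Compounds tested over 10 3-fold doses from 100 nM top final. Phospho-p53 Ser15 detected by antibody, HRP and TMB, absorbance at 450 nm.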
Background: ELISA stands for enzyme-linked immunosorbent assay.

The target of another experiment is ATM (Homo sapiens (Human), UniProt Q13315). Put plainly: ATM in Cell Western Assay (pKAP1 in etoposide-treated MCF-7 cells). It counts as cell-based. In a few lines: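 Cells received compounds in a 10-dose, 3-fold series from a 1 μM final top concentration, then 100 μM etoposide, for 1 hr at 37° C. They were then fixed with paraformaldehyde and permeabilized with 0.1% Triton X-100. After immunostaining, plates were scanned on an infrared imager.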
ATM, sequence (Q13315 whole entry): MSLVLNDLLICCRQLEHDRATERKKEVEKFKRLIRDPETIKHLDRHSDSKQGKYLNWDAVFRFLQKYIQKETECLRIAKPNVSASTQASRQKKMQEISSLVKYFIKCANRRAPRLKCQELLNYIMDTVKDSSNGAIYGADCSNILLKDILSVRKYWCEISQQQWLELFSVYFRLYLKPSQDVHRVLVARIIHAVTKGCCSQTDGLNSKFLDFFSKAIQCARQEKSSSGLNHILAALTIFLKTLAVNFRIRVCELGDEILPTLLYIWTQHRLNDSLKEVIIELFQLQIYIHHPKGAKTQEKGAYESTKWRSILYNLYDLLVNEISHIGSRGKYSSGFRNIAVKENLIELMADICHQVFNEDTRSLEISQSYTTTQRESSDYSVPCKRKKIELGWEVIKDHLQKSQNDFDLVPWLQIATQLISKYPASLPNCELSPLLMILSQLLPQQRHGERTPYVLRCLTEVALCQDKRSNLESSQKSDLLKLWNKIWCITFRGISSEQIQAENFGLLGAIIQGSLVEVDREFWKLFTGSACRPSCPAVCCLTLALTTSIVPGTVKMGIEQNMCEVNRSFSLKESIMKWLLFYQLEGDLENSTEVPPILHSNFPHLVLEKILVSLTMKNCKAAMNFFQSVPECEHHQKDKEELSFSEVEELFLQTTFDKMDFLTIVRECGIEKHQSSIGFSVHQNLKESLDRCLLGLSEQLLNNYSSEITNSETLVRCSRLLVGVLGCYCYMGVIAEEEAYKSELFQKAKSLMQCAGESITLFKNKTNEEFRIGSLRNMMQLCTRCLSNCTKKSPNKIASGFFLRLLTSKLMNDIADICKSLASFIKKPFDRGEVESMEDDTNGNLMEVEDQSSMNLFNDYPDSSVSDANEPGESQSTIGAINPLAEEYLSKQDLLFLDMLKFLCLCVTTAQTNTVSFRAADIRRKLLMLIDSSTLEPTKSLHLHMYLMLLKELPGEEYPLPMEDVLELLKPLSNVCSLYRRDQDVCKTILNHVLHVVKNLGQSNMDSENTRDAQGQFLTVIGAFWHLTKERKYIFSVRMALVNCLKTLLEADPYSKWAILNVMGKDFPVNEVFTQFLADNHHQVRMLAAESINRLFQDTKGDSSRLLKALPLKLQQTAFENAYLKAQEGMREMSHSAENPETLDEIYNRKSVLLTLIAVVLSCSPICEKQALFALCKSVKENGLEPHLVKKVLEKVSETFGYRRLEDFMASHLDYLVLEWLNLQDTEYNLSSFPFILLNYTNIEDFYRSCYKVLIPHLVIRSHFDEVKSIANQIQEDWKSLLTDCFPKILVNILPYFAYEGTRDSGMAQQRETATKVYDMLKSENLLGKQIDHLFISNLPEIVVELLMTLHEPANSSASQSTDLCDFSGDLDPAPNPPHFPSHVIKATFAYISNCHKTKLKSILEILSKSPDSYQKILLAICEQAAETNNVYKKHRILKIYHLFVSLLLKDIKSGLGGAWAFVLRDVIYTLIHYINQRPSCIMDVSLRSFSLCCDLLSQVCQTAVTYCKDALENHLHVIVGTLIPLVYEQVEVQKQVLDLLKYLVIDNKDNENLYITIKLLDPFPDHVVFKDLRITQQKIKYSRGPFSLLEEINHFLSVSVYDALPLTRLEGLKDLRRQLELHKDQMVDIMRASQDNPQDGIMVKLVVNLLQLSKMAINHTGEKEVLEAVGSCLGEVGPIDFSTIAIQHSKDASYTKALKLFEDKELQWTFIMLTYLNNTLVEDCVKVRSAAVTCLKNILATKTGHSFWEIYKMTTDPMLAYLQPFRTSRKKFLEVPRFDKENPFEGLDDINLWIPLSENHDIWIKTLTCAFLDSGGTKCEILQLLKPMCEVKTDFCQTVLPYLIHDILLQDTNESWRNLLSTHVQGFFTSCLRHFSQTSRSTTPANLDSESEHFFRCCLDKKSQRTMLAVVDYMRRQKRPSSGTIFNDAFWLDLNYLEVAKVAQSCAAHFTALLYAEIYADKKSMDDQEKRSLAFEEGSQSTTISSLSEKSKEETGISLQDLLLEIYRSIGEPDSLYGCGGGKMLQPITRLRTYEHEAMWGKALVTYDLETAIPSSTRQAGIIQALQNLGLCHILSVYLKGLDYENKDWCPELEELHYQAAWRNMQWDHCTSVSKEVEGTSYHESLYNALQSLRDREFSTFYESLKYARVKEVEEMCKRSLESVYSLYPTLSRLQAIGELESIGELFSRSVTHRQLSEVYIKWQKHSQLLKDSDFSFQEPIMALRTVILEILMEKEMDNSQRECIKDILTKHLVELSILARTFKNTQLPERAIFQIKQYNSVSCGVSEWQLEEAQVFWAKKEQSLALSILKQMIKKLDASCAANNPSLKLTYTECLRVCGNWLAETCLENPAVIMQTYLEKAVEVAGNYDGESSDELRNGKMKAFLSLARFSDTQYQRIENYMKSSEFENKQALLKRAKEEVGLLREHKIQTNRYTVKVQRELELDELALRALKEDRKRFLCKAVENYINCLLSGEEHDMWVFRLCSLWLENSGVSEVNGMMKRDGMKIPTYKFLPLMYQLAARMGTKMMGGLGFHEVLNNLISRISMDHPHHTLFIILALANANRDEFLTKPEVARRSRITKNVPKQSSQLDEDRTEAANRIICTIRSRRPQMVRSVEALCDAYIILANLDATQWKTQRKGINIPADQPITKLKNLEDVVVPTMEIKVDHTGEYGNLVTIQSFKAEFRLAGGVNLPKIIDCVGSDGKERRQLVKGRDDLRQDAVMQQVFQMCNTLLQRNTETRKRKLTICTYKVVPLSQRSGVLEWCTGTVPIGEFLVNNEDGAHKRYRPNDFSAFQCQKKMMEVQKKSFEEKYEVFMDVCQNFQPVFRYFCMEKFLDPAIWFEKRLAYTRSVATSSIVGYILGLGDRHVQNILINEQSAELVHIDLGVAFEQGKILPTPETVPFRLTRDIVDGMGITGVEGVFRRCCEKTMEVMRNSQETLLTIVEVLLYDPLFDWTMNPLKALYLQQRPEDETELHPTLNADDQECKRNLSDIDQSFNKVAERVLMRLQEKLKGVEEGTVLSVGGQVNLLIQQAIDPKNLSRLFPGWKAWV

Where [1] appears, read: MCF-7 cells, etoposide 100 μM, 1 hr, pKAP1 readout.
[2] abbreviates: pKAP1 in etoposide-treated MCF-7 cells.

Consider `CN1C(=O)C2(CC2)c2c1cnc1ccc(-c3cnc(OC4CC(N(C)C)C4)c(NS(=O)(=O)c4ccccc4)c3)cc21` (stereo not shown) [Example 102, N-(2-(3-(Dimethylamino)cyclobutoxy)-5-(3′-methyl-2′-oxo-2′,3′-dihydrospiro[cyclopropane-1,1′-pyrrolo[2,3-c]quinolin]-8′-yl)pyridin-3-yl)benzenesulfonamide], for which the 50% inhibitory concentration (IC50) against DNA-PK (ATP 20 μM) and at ATM (setting [1]) was 1 to 100 nM throughout.

For `Cc1ccc(N2CC3(C2)C(=O)N(C)c2cnc4cc(F)c(-c5cnc(OCCNC(C)C)c(NS(C)(=O)=O)c5)cc4c23)cc1` [Example 526, N-(5-(7′-Fluoro-3′-methyl-2′-oxo-1-(p-tolyl)-2′,3′-dihydrospiro[azetidine-3,1′-pyrrolo[2,3-c]quinolin]-8′-yl)-2-(2-(isopropylamino)ethoxy)pyridin-3-yl)methanesulfonamide hydrochloride], the IC50 (usually the concentration that gives 50% inhibition) was < 0.5 nM at DNA-PK (20 μM ATP) and 1 to 100 nM against ATM (setting [2]).

On to `CN1C(=O)C2(CC2)c2c1cnc1ccc(-c3cnc(N4CCC(N(C)C)CC4)c(NS(=O)(=O)C4CC4)c3)cc21` [Example 113, N-(2-(4-(Dimethylamino)piperidin-1-yl)-5-(3′-methyl-2′-oxo-2′,3′-dihydrospiro[cyclopropane-1,1′-pyrrolo[2,3-c]quinolin]-8′-yl)pyridin-3-yl)cyclopropanesulfonamide], for which the IC50 against DNA-PK (ATP 20 μM) and against ATM (setting [1]) was < 0.5 nM throughout.

As to `Cc1ncc(S(=O)(=O)Nc2cc(-c3ccc4ncc5c(c4c3)C3(CCC3)C(=O)N5C)cnc2N2CC(N(C)C)C2)s1` [Example 338, N-(2-(3-(Dimethylamino)azetidin-1-yl)-5-(3′-methyl-2′-oxo-2′,3′-dihydrospiro[cyclobutane-1,1′-pyrrolo[2,3-c]quinolin]-8′-yl)pyridin-3-yl)-2-methylthiazole-5-sulfonamide], the IC50 on DNA-PK (20 μM ATP) and at ATM (setting [2]) was 1 to 100 nM each time.

`CN1C(=O)C2(CCC2)c2c1cnc1ccc(-c3cnc(N4CCC(N(C)C)C4)c(NS(C)(=O)=O)c3)cc21` (racemic) [Example 351, (rac)-N-(2-(3-(Dimethylamino)pyrrolidin-1-yl)-5-(3′-methyl-2′-oxo-2′,3′-dihydrospiro[cyclobutane-1,1′-pyrrolo[2,3-c]quinolin]-8′-yl)pyridin-3-yl)methanesulfonamide]: the IC50 on DNA-PK (20 μM ATP) and against ATM (setting [2]) was 1 to 100 nM in each case.

`CN1C(=O)C2(CCC2)c2c1cnc1ccc(-c3cnc(OCCCN4CCCC4)c(NS(=O)(=O)C4CC4)c3)cc21` [Example 235, N-(5-(3′-Methyl-2′-oxo-2′,3′-dihydrospiro[cyclobutane-1,1′-pyrrolo[2,3-c]quinolin]-8′-yl)-2-(3-(pyrrolidin-1-yl)propoxy)pyridin-3-yl)cyclopropanesulfonamide]: the IC50 against DNA-PK (ATP 20 μM) and against ATM (setting [1]) was 1 to 100 nM in each case.

`CN1C(=O)C2(CCC2)c2c1cnc1ccc(-c3cnc(N4CC(N5CCCC5)C4)c(NS(C)(=O)=O)c3)cc21` [Example 277, N-(5-(3′-Methyl-2′-oxo-2′,3′-dihydrospiro[cyclobutane-1,1′-pyrrolo[2,3-c]quinolin]-8′-yl)-2-(3-(pyrrolidin-1-yl)azetidin-1-yl)pyridin-3-yl)methanesulfonamide]: the IC50 against DNA-PK (ATP 20 μM) and on ATM (setting [1]) was 1 to 100 nM in each case.

Regarding `CN(C)CCCOc1ncc(-c2ccc3ncc4c(c3c2)C2(CCOCC2)C(=O)N4C)cc1NS(=O)(=O)c1ccccc1` [Example 33, N-(2-(3-(Dimethylamino)propoxy)-5-(3′-methyl-2′-oxo-2,2′,3′-,3′-,5,6-hexahydrospiro[pyran-4,1′-pyrrolo[2,3-c]quinolin]-8′-yl)pyridin-3-yl)benzenesulfonamide], the IC50 on DNA-PK (ATP 20 μM) and against ATM (setting [1]) was 1 to 100 nM throughout.

`CC(C)NCCOc1ncc(-c2cc3c4c(cnc3cc2F)N(C)C(=O)C42CCC2)cc1NS(=O)(=O)N(C)C` [Example 369, 8′-{5-[(Dimethylsulfamoyl)amino]-6-{2-[(propan-2-ylamino]ethoxy′}pyridin-3-yl}-7′-fluoro-3′-methyl-2′,3′-dihydrospiro [cyclobutane-1,1′-pyrrolo[2,3-c]quinoline]-2′-one hydrochloride]: the results for the 50% inhibitory concentration (IC50) against DNA-PK (20 μM ATP) and on ATM (setting [2]) were 0.5 to 1 nM and 1 to 100 nM, respectively.

As for `CN1C(=O)C2(CCC2)c2c1cnc1ccc(-c3cnc(OCCCN4CCCCC4)c(NS(=O)(=O)N4CCNCC4)c3)cc21` [Example 202, N-(5-(3′-Methyl-2′-oxo-2′,3′-dihydrospiro[cyclobutane-1,1′-pyrrolo[2,3-c]quinolin]-8′-yl)-2-(3-(piperidin-1-yl)propoxy)pyridin-3-yl)piperazine-1-sulfonamide], the IC50 against DNA-PK (ATP 20 μM) is < 0.5 nM; at ATM (setting [1]) it was 0.5 to 1 nM.

Consider `Cc1ccc(S(=O)(=O)Nc2cc(-c3ccc4ncc5c(c4c3)C3(CCC3)C(=O)N5C)cnc2N2CCC(N(C)C)CC2)cn1` [Example 185, N-(2-(4-(Dimethylamino)piperidin-1-yl)-5-(3′-methyl-2′-oxo-2′,3′-dihydrospiro[cyclobutane-1,1′-pyrrolo[2,3-c]quinolin]-8′-yl)pyridin-3-yl)-6-methylpyridine-3-sulfonamide hydrochloride], for which the values for the IC50 on DNA-PK (ATP 20 μM) and on ATM (setting [1]) were 0.5 to 1 nM and 1 to 100 nM, respectively.

Take `CC(C)NCCOc1ncc(-c2cc3c(cc2F)ncc2c3[C@]3(C[C@H](C)C3)C(=O)N2C)cc1NS(C)(=O)=O` [Example 448, cis-N-(5-(7′-Fluoro-3,3′-dimethyl-2′-oxo-2′,3′-dihydrospiro[cyclobutane-1,1′-pyrrolo[2,3-c]quinolin]-8′-yl)-2-(2-(isopropylamino)ethoxy)pyridin-3-yl)methanesulfonamide]: the IC50 at DNA-PK (20 μM ATP) and on ATM (setting [2]) was 1 to 100 nM each time.

For the compound `COc1ccc([C@H]2C[C@@]3(C2)C(=O)N(C)c2cnc4cc(F)c(-c5cnc(OCCNC(C)C)c(NS(C)(=O)=O)c5)cc4c23)cn1` [Example 431, trans-N-(5-(7′-Fluoro-3-(6-methoxypyridin-3-yl)-3′-methyl-2′-oxo-2′,3′-dihydrospiro[cyclobutane-1,1′-pyrrolo[2,3-c]quinolin]-8′-yl)-2-(2-(isopropylamino)ethoxy)pyridin-3-yl)methanesulfonamide], the IC50 against DNA-PK (20 μM ATP) and against ATM (setting [2]) was > 100 nM each time.

Take `CNCCOc1ncc(-c2ccc3ncc4c(c3c2)C2(CCC2)C(=O)N4C)cc1NS(C)(=O)=O` [Example 249, N-(5-(3′-Methyl-2′-oxo-2′,3′-dihydrospiro[cyclobutane-1,1′-pyrrolo[2,3-c]quinolin]-8′-yl)-2-(2-(methylamino)ethoxy)pyridin-3-yl) methanesulfonamide]: the IC50 at DNA-PK (ATP 20 μM) was < 0.5 nM; at ATM (setting [1]) it was 1 to 100 nM.

Consider `CN(C)CCCOc1ncc(-c2ccc3ncc4c(c3c2)C2(CCC2)C(=O)N4C)cc1NS(=O)(=O)N1CCN(C)CC1` [Example 162, N-(2-(3-(Dimethylamino)propoxy)-5-(3′-methyl-2′-oxo-2′,3′-dihydrospiro[cyclobutane-1,1′-pyrrolo[2,3-c]quinolin]-8′-yl)pyridin-3-yl)-4-methylpiperazine-1-sulfonamide hydrochloride], for which the IC50 is 0.5 to 1 nM against DNA-PK (ATP 20 μM) and 1 to 100 nM at ATM (setting [1]).

Take `CN(C)CCCOc1ncc(-c2ccc3ncc4c(c3c2)C2(CCC2)C(=O)N4C)cc1NS(=O)(=O)c1ccc(C(F)(F)F)cc1` [Example 186, N-(2-(3-(Dimethylamino)propoxy)-5-(3′-methyl-2′-oxo-2′,3′-dihydrospiro[cyclobutane-1,1′-pyrrolo[2,3-c]quinolin]-8′-yl)pyridin-3-yl)-4-(trifluoromethyl)benzenesulfonamide hydrochloride]: the IC50 on DNA-PK (ATP 20 μM) and on ATM (setting [1]) was 1 to 100 nM in each case.

As to `CC(C)NCCOc1ncc(-c2cc3c(cc2F)ncc2c3[C@]3(C[C@H](OC(C)c4ccccc4)C3)C(=O)N2C)cc1NS(C)(=O)=O` (stereo partly drawn) [Example 397, cis-N-(5-(7′-Fluoro-3′-methyl-2′-oxo-3-(1-phenylethoxy)-2′,3′-dihydrospiro[cyclobutane-1,1′-pyrrolo[2,3-c]quinolin]-8′-yl)-2-(2-(isopropylamino)ethoxy)pyridin-3-yl)methanesulfonamide], the concentration for half-maximal inhibition (IC50) was < 0.5 nM on DNA-PK (20 μM ATP) and 1 to 100 nM on ATM (setting [2]).

For `Cc1ncc(S(=O)(=O)Nc2cc(-c3ccc4ncc5c(c4c3)C3(CCC3)C(=O)N5C)cnc2OCCCN(C)C)s1` [Example 289, N-(2-(3-(Dimethylamino)propoxy)-5-(3′-methyl-2′-oxo-2′,3′-dihydrospiro [cyclobutane-1,1′-pyrrolo [2,3-c]quinolin]-8′-yl)pyridin-3-yl)-2-methylthiazole-5-sulfonamide], the IC50 against DNA-PK (ATP 20 μM) was 0.5 to 1 nM; on ATM (setting [1]), 1 to 100 nM.

`COc1ncc(-c2ccc3ncc4c(c3c2)C2(CC2)C(=O)N4)cc1NS(=O)(=O)c1ccccc1` [Example 19, N-(2-Methoxy-5-(2′-oxo-2′,3′-dihydrospiro [cyclopropane-1,1′-pyrrolo[2,3-c]quinolin]-8′-yl)pyridin-3-yl) benzenesulfonamide]: the IC50 at DNA-PK (ATP 20 μM) was < 0.5 nM; against ATM (setting [1]), 1 to 100 nM.

Consider `CN1C(=O)C2(CCC2)c2c1cnc1ccc(-c3cnc(OCCCN4CCCCC4)c(NS(=O)(=O)c4cscn4)c3)cc21` [Example 193, N-(5-(3′-Methyl-2′-oxo-2′,3′-dihydrospiro[cyclobutane-1,1′-pyrrolo[2,3-c]quinolin]-8′-yl)-2-(3-(piperidin-1-yl)propoxy)pyridin-3-yl)thiazole-4-sulfonamide hydrochloride], for which the values for the IC50 against DNA-PK (ATP 20 μM) and against ATM (setting [1]) were 0.5 to 1 nM and 1 to 100 nM, respectively.
